Experimental data reported in ChEMBL document CHEMBL6078681, “Discovery and Optimization of Dihydroquinolin-2(1H)-ones as Novel Highly Selective and Orally Bioavailable Phosphodiesterase 5 Inhibitors for the Treatment of Pulmonary Arterial Hypertension” (J Med Chem, 2024).

Tests used:
[1] = target: T1, cGMP-specific 3',5'-cyclic phosphodiesterase (Homo sapiens, UniProt O76074); test: Inhibition of PDE5A (unknown origin) using […] as substrate at 100 nM incubated for 1 hr by fluorescence polarization assay relative to control
[2] = target: T1, cGMP-specific 3',5'-cyclic phosphodiesterase; test: Inhibition of PDE5A (unknown origin) using […] as substrate incubated for 1 hr by fluorescence polarization assay
[3] = target: T1, cGMP-specific 3',5'-cyclic phosphodiesterase; test: Inhibition of PDE5A (unknown origin) using […] as substrate at 1000 nM incubated for 1 hr by fluorescence polarization assay relative to control

Cc1ccc(-c2c(C#N)c(=O)n(Cc3ccc(F)cc3)c3c(NC(C)c4ccccn4)cccc23)cc1 (stereo not given)
inhibition [1]: 5%

COc1ccc(Cn2c(=O)c(C#N)c(-c3ccc(C)cc3)c3cccc(NC(C)c4ccccn4)c32)cc1Cl (stereo not given)
inhibition [1]: 12%

Cc1ccc(-c2c(C#N)c(=O)n(Cc3ccccc3)c3c(NCc4ccccn4)cccc23)cc1
IC50 [2]: 20 nM

COc1ccc(-c2c(C#N)c(=O)n(Cc3ccccc3)c3c(N[C@@H](C)c4ccccn4)cccc23)cc1
IC50 [2]: 8 nM

Cc1ccc(-c2c(C#N)c(=O)n(Cc3ccccc3)c3cc(NC(C)c4ccccn4)ccc23)cc1 (stereo not given)
IC50 [2]: 578 nM

CC(Nc1cccc2c(C3CCCC3)c(C#N)c(=O)n(Cc3ccccc3)c12)c1ccccn1 (stereo not given)
inhibition [1]: 14%

COc1ccc(-c2c(C#N)c(=O)n(Cc3ccccc3)c3c(NC(C)c4ccccn4)cccc23)cc1 (stereo not given)
IC50 [2]: 5 nM

Cc1ccc(-c2c(C#N)c(=O)n(CC3CC3)c3c(NC(C)c4ccccn4)cccc23)cc1 (stereo not given)
inhibition [3]: 35%

Cc1ccc(-c2c(C#N)c(=O)n(Cc3ccccc3)c3c(NC(C)c4ccccc4)cccc23)cc1 (stereo not given)
IC50 [2]: 11 nM

CC(C)c1c(C#N)c(=O)n(Cc2ccccc2)c2c(NC(C)c3ccccn3)cccc12 (stereo not given)
IC50 [2]: 39 nM
